Reference: US10221174B2, “N-(phenylsulfonyl)benzamides and related compounds as BCL-2 inhibitors” (THE REGENTS OF THE UNIVERSITY OF MICHIGAN, priority 2016, dated 2019)
Like-named read-outs stand apart in the source and are kept apart here.

Columns and labels:
Molm13 cells = assay: Molm13 cell viability, CCK-8 assay; format: cell-based; settings: Homo sapiens, MOLM-13, 96 h, CCK-8, 4 days, read-out: Molm13 IC50 (Bcl-2 dependent)
Protocol: Molm13 cells were obtained from Deutsche Sammlung von Mikroorganismen und Zellkulturen GmbH (DSMZ). They were used within three months of thawing fresh vials. Cells were maintained in the recommended culture medium with 10% FBS at 37° C. and an atmosphere of 5% CO2.
200 μL of a Molm13 cell suspension (10000 cells/well) in culture medium were seeded into 96-well plates and cultured overnight. Each tested compound was serially diluted in culture medium, and 20 μL of the compound dilution was added to the corresponding well of the cell plate. After the addition of the tested compound, the cells were incubated at 37° C. in an atmosphere of 5% CO2 for 4 days. […] The plates were read at 450 nm on the microplate spectrophotometer (Epoch2, BioTek). The readings were normalized to the vehicle cells, and the IC50 was calculated by nonlinear regression analysis using GraphPad Prism 5 software.

RS4;11 cells = assay: RS4;11 cell viability, CCK-8 assay; format: cell-based; settings: Homo sapiens, RS4-11, 96 h, CCK-8, 4 days, read-out: RS4, 11 IC50 (Bcl-2 dependent)
Protocol: RS4;11 cells were obtained from American Type Culture Collection (ATCC). They were used within three months of thawing fresh vials. Cells were maintained in the recommended culture medium with 10% FBS at 37° C. and an atmosphere of 5% CO2.
The effect of representative Compounds of the Disclosure on cell viability was determined using Cell Counting Kit-8 (CCK-8) assay (Dojindo, Rockville, Md.) according to the manufacturer's instructions. 200 μL of a RS4;11 cell suspension (10000 cells/well) in culture medium were seeded into 96-well plates and cultured overnight. Each tested compound was serially diluted in culture medium, and 20 μL of the compound dilution was added to the corresponding well of the cell plate. After the addition of the tested compound, the cells were incubated at 37° C. in an atmosphere of 5% CO2 for 4 days. At the end of 4 days, 10 μL of CCK-8 solution was added to each well of the plate and incubated for 1-4 hours. The plates were read at 450 nm on the microplate spectrophotometer (Epoch2, BioTek). The readings were normalized to the vehicle cells, and the IC50 was calculated by nonlinear regression analysis using GraphPad Prism 5 software.

Bcl-2 = Bcl-2 (Homo sapiens (Human), UniProt P10415)
Protocol: (§1) Fluorescence polarization values were measured using the Infinite M-1000 plate reader (Tecan U.S., Research Triangle Park, N.C.) in Microfluor 1 96-well, black, round-bottom plates (Thermo Scientific). […] Plates were mixed and incubated at room temperature for 1 hour with gentle shaking to assure equilibrium. […] Equilibrium dissociation constants (Kd) were then calculated by fitting the sigmoidal dose-dependent FP increases as a function of protein concentrations using Graphpad Prism 5.0 software (Graphpad Software, San Diego, Calif.).
(§2) Mixtures of 5 μl of the tested inhibitors in DMSO and 120 μl of pre-incubated protein/probe complexes in the assay buffer were added into assay plates and incubated at room temperature for 2 hours with gentle shaking. […] FP values were measured as described above. IC50 values were determined by nonlinear regression fitting of the competition curves.

Bcl-xL = Bcl-xL (Homo sapiens (Human), UniProt Q07817); assay: Fluorescence polarization competitive binding assay, Bcl-xL; settings: FP competition, 10 nM Bcl-xL, 2 nM Flu-BAK probe; read-out: Inhibitory activity IC50 Bcl-xL
Protocol: as §1, §2

Pharmacokinetics in rats = format: in vivo; settings: for F(AUC0-t): oral 20 mg/kg vs IV 2 mg/kg; for MRT inf / AUC(0-t) / clearance / Cmax / Tmax / Vd / half-life: rat, in vivo; for clearance: read-out: CL (iv) (converted); for Vd: read-out: Vss (iv)
Protocol: The pharmacokinetics of ABT-199 and representative Compounds of the Disclosure were evaluated in rats at an IV dose of 2 mg/kg and an oral dose of 20 mg/kg.

Mcl-1 [1] = molecular target: T1, Mcl-1 (Homo sapiens (Human), UniProt Q07820); assay: Fluorescence polarization competitive binding assay, Mcl-1; settings: FP competition, 20 nM Mcl-1, 2 nM Flu-BID probe; read-out: Inhibitory activity IC50 Mcl-1
Protocol: as §1, §2

[2] = tested on: RS4;11 leukemia xenograft; assay: RS4;11 leukemia xenograft model; format: in vivo; settings: nude mice, oral gavage
Protocol: The antitumor activity of Cpd. No. 6 (compound 6) was also studied in the RS4;11 leukemia xenograft model. Human RS4;11 tumor cells were injected into nude mice and treatment started on day 11 when the tumor size reached approximately 100 mm^3. Cpd. No. 6 was administered via oral gavage at indicated doses and schedules. Cpd.

Mcl-1 [3] = molecular target: T1, Mcl-1; assay: FP saturation binding of fluorescent probe to Mcl-1; settings: 2 nM probe
Protocol: as §1

[4] = IV 2 mg/kg, read-out: AUC0-t IV
[5] = IV 2 mg/kg, read-out: t1/2 IV (converted)
[6] = oral 20 mg/kg, read-out: AUC0-t PO
[7] = oral 20 mg/kg, read-out: Cmax PO
[8] = oral 20 mg/kg, read-out: Tmax PO
[9] = oral 20 mg/kg, read-out: t1/2 PO (converted)

Chain of Bcl-2 (P10415 whole entry): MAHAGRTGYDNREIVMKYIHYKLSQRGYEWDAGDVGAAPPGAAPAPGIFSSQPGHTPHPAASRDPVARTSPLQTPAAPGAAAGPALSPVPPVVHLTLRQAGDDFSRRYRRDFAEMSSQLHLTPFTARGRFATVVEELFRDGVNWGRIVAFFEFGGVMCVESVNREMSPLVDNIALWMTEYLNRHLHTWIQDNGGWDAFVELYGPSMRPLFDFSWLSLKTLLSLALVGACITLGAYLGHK
Chain of Bcl-xL (Q07817 whole entry): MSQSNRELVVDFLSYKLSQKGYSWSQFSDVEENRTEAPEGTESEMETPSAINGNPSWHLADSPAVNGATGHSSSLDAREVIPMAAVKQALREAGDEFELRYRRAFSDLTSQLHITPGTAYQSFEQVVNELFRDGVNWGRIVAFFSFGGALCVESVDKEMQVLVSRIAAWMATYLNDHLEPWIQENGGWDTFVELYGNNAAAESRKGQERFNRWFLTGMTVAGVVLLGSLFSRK
T1 sequence (Q07820 whole entry): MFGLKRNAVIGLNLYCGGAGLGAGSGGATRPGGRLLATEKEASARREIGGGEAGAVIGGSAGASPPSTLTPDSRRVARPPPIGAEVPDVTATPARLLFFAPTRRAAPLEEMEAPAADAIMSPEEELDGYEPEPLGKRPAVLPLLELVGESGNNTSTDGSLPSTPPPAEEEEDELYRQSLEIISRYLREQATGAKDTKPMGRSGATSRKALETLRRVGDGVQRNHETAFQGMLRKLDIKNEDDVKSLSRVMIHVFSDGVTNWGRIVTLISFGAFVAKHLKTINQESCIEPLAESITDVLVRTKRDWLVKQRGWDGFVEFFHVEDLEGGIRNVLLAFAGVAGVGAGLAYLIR

| Compound | IC50 (Molm13 cells) | IC50 (RS4;11 cells) | IC50 (Bcl-2) | IC50 (Bcl-xL) | other results |
| --- | --- | --- | --- | --- | --- |
| O=C(NS(=O)(=O)c1ccc(NCC2CCOCC2)c([N+](=O)[O-])c1)c1ccc(N2CCN(CC3=C(c4ccc(Cl)cc4)CC4(CC3)COC4)CC2)cc1Oc1cnc2[nH]ccc2c1 [Cpd. No. 2, 2-((1H-pyrrolo[2,3-b]pyridin-5-yl)oxy)-4-(4-((6-(4-chlorophenyl)-2-oxaspiro[3.5]non-6-en-7-yl)methyl)piperazin-1-yl)-N-((3-nitro-4-(((tetrahydro-2H-pyran-4-yl)methyl)amino)phenyl)sulfonyl)benzamide] | 85 nM | 5.5 nM | 0.76 nM | 10.6 nM |  |
| O=C(NS(=O)(=O)c1ccc(NCC2CCOCC2)c([N+](=O)[O-])c1)c1ccc(N2CCN(CC3=C(c4ccc(Cl)cc4)CC4(CCC4)CC3)CC2)cc1Oc1cnc2[nH]ccc2c1 [Cpd. No. 3, 2-((1H-pyrrolo[2,3-b]pyridin-5-yl)oxy)-4-(4-((6-(4-chlorophenyl)spiro[3.5]non-6-en-7-yl)methyl)piperazin-1-yl)-N-((3-nitro-4-(((tetrahydro-2H-pyran-4-yl)methyl)amino)phenyl)sulfonyl)benzamide] |  | 26 nM | 1.2 nM | 13.7 nM | AUC0-∞ IV (Pharmacokinetics in rats; IV 2 mg/kg): 2683 n · gh/mL; AUC0-∞ PO (Pharmacokinetics in rats; oral 20 mg/kg): 7775 n · gh/mL; F(AUC0-t) (Pharmacokinetics in rats): 29.0%; MRT inf (Pharmacokinetics in rats; IV 2 mg/kg): 2.37 h; AUC(0-t) (Pharmacokinetics in rats; [4]): 2660 ng·h/mL; clearance (Pharmacokinetics in rats; IV 2 mg/kg): 12.8 mL/min/kg; Cmax (Pharmacokinetics in rats; IV 2 mg/kg, read-out: Cmax IV): 4200 ng/mL; Tmax (Pharmacokinetics in rats; IV 2 mg/kg, read-out: Tmax IV): 0.083 h; Vd (Pharmacokinetics in rats; IV 2 mg/kg): 1.86 L/kg; half-life (Pharmacokinetics in rats; [5]): 4.94 h; AUC(0-t) (Pharmacokinetics in rats; [6]): 7630 ng·h/mL; Cmax (Pharmacokinetics in rats; [7]): 1320 ng/mL; Tmax (Pharmacokinetics in rats; [8]): 2 h; half-life (Pharmacokinetics in rats; [9]): 4.46 h |
| O=C(NS(=O)(=O)c1ccc(NC[C@H]2COCCO2)c([N+](=O)[O-])c1)c1ccc(N2CCN(CC3=C(c4ccc(Cl)cc4)CC4(CCC4)CC3)CC2)cc1Oc1cnc2[nH]ccc2c1 [Cpd. No. 6, (S)-N-((4-(((1,4-dioxan-2-yl)methyl)amino)-3-nitrophenyl)sulfonyl)-2-((1H-pyrrolo[2,3-b]pyridin-5-yl)oxy)-4-(4-((6-(4-chlorophenyl)spiro[3.5]non-6-en-7-yl)methyl)piperazin-1-yl)benzamide] |  | 5.5 nM |  |  | IC50 (Mcl-1 [1]): > 5000 nM; mouse weight ([2]; FIG. 4): does not cause weight loss in mice; antitumor activity (tumor growth) ([2]; treatment from day 11, FIG. 3): inhibits tumor growth; AUC0-∞ IV (Pharmacokinetics in rats; IV 2 mg/kg): 2915 n · gh/mL; AUC0-∞ PO (Pharmacokinetics in rats; oral 20 mg/kg): 13475 n · gh/mL; F(AUC0-t) (Pharmacokinetics in rats): 46.2%; MRT inf (Pharmacokinetics in rats; IV 2 mg/kg): 2.09 h; AUC(0-t) (Pharmacokinetics in rats; [4]): 2900 ng·h/mL; clearance (Pharmacokinetics in rats; IV 2 mg/kg): 11.6 mL/min/kg; Cmax (Pharmacokinetics in rats; IV 2 mg/kg, read-out: Cmax IV): 4170 ng/mL; Tmax (Pharmacokinetics in rats; IV 2 mg/kg, read-out: Tmax IV): 0.083 h; Vd (Pharmacokinetics in rats; IV 2 mg/kg): 1.44 L/kg; half-life (Pharmacokinetics in rats; [5]): 4.39 h; AUC(0-t) (Pharmacokinetics in rats; [6]): 13400 ng·h/mL; Cmax (Pharmacokinetics in rats; [7]): 2620 ng/mL; Tmax (Pharmacokinetics in rats; [8]): 2.67 h; half-life (Pharmacokinetics in rats; [9]): 3.12 h |
| O=C(NS(=O)(=O)c1ccc(NC[C@@H]2COCCO2)c([N+](=O)[O-])c1)c1ccc(C2=CCN(CC3=C(c4ccc(Cl)cc4)CC4(CCC4)CC3)CC2)cc1Oc1cnc2[nH]ccc2c1 [compound 1, (R)-N-((4-(((1,4-dioxan-2-yl)methyl)amino)-3-nitrophenyl)sulfonyl)-2-((1H-pyrrolo[2,3-b]pyridin-5-yl)oxy)-4-(1-((6-(4-chlorophenyl)spiro[3.5]non-6-en-7-yl)methyl)-1,2,3,6-tetrahydropyridin-4-yl)benzamide] | 47 nM | 3 nM |  |  |  |
| CNc1ccc(S(=O)(=O)NC(=O)c2ccc(N3CCN(CC4=C(c5ccc(Cl)cc5)CC5(CCC5)CC4)CC3)cc2Oc2cnc3[nH]ccc3c2)cc1[N+](=O)[O-] [compound 10, 2-((1H-pyrrolo[2,3-b]pyridin-5-yl)oxy)-4-(4-((6-(4-chlorophenyl)spiro[3.5]non-6-en-7-yl)methyl)piperazin-1-yl)-N-((4-(methylamino)-3-nitrophenyl)sulfonyl)benzamide] | 182 nM | 32 nM | 3.3 nM | 14 nM |  |
| CN(C)c1ccc(S(=O)(=O)NC(=O)c2ccc(N3CCN(CC4=C(c5ccc(Cl)cc5)CC5(CCC5)CC4)CC3)cc2Oc2cnc3[nH]ccc3c2)cc1[N+](=O)[O-] [compound 11, 2-((1H-pyrrolo[2,3-b]pyridin-5-yl)oxy)-4-(4-((6-(4-chlorophenyl)spiro[3.5]non-6-en-7-yl)methyl)piperazin-1-yl)-N-((4-(dimethylamino)-3-nitrophenyl)sulfonyl)benzamide] | 1020 nM | 61 nM | 11.9 nM | 77.8 nM |  |
| O=C(NS(=O)(=O)c1ccc(NCC2CCOCC2)c([N+](=O)[O-])c1)c1ccc(C2CCN(CC3=C(c4ccc(Cl)cc4)CC4(CCC4)CC3)CC2)cc1Oc1cnc2[nH]ccc2c1 [compound 12, 2-((1H-pyrrolo[2,3-b]pyridin-5-yl)oxy)-4-(1-((6-(4-chlorophenyl)spiro[3.5]non-6-en-7-yl)methyl)piperidin-4-yl)-N-((3-nitro-4-(((tetrahydro-2H-pyran-4-yl)methyl)amino)phenyl)sulfonyl)benzamide] | 253 nM | 78 nM | 4.4 nM |  |  |
| CC(C)c1nc2cc(S(=O)(=O)NC(=O)c3ccc(N4CCN(CC5=C(c6ccc(Cl)cc6)CC6(CCC6)CC5)CC4)cc3Oc3cnc4[nH]ccc4c3)cc([N+](=O)[O-])c2[nH]1 [compound 58, 2-((1H-pyrrolo[2,3-b]pyridin-5-yl)oxy)-4-(4-((6-(4-chlorophenyl)spiro[3.5]non-6-en-7-yl)methyl)piperazin-1-yl)-N-((2-isopropyl-7-nitro-1H-benzo[d]imidazol-5-yl)sulfonyl)benzamide] | 250 nM | 35 nM | 3.8 nM | 19.2 nM |  |
| O=C(NS(=O)(=O)c1cc([N+](=O)[O-])c2[nH]c(C3CC3)nc2c1)c1ccc(N2CCN(CC3=C(c4ccc(Cl)cc4)CC4(CCC4)CC3)CC2)cc1Oc1cnc2[nH]ccc2c1 [compound 59, 2-((1H-pyrrolo[2,3-b]pyridin-5-yl)oxy)-4-(4-((6-(4-chlorophenyl)spiro[3.5]non-6-en-7-yl)methyl)piperazin-1-yl)-N-((2-cyclopropyl-7-nitro-1H-benzo[d]imidazol-5-yl)sulfonyl)benzamide] | 468 nM | 65 nM | 5 nM | 20.7 nM |  |
| O=C(NS(=O)(=O)c1cc([N+](=O)[O-])c2cn(CC3CCOCC3)nc2c1)c1ccc(N2CCN(CC3=C(c4ccc(Cl)cc4)CC4(CCC4)CC3)CC2)cc1Oc1cnc2[nH]ccc2c1 [compound 63, 2-((1H-pyrrolo[2,3-b]pyridin-5-yl)oxy)-4-(4-((6-(4-chlorophenyl)spiro[3.5]non-6-en-7-yl)methyl)piperazin-1-yl)-N-((4-nitro-2-((tetrahydro-2H-pyran-4-yl)methyl)-2H-indazol-6-yl)sulfonyl)benzamide] |  | 55 nM | 1.3 nM | 7.1 nM |  |
| O=C(NS(=O)(=O)c1cc([N+](=O)[O-])c2cn(C3CCOCC3)nc2c1)c1ccc(N2CCN(CC3=C(c4ccc(Cl)cc4)CC4(CCC4)CC3)CC2)cc1Oc1cnc2[nH]ccc2c1 [compound 65, 2-((1H-pyrrolo[2,3-b]pyridin-5-yl)oxy)-4-(4-((6-(4-chlorophenyl)spiro[3.5]non-6-en-7-yl)methyl)piperazin-1-yl)-N-((4-nitro-2-(tetrahydro-2H-pyran-4-yl)-2H-indazol-6-yl)sulfonyl)benzamide] |  | 11 nM | 1.4 nM | 9.9 nM |  |
| Flu-BID: Fluorescein labeled BID (79-99) peptide, fluorescent probe in FP assay for Mcl-1 |  |  |  |  | Kd (Mcl-1 [3]): 6.9 ± 0.9 nM |
